Measurements as given in PMC9176691, “Design, synthesis and biological evaluation of novel diosgenin–benzoic acid mustard hybrids with potential anti-proliferative activities in human hepatoma HepG2 cells” (Journal of Enzyme Inhibition and Medicinal Chemistry, 2022).
Read-outs that look alike come from different tables or passages of the source.

Tests used:
HepG2 cells = test: MTT anti-proliferative assay, HepG2; type: cell-based, human; settings: read-out: IC50 HepG2
MCF-7 cells = test: MTT anti-proliferative assay, MCF-7; type: cell-based, human; settings: Homo sapiens, read-out: IC50 MCF-7
GES-1 cells = test: MTT cytotoxicity assay, normal GES-1; type: cell-based, human; settings: for IC50: Homo sapiens, read-out: IC50 GES-1
HeLa cells = test: MTT anti-proliferative assay, HeLa; type: cell-based; settings: Homo sapiens, read-out: IC50 HeLa
[1] = MTT, 48 h treatment, average ± SD of three independent experiments

C[C@H](CC[C@H]1OC2C[C@H]3[C@@H]4CC=C5C[C@@H](O)CC[C@]5(C)C4CC[C@]3(C)C2[C@@H]1C)COC(=O)c1ccc(N(CCCl)CCCl)cc1 (stereo partly drawn) [Compound 8, (22 R,25R)-3β-hydroxy-5-en-furostan-26–4-(bis(2-chloroethyl)amino)benzoate]
IC50 (HepG2 cells; Homo sapiens, HepG2, 48 h): > 50 µM | IC50 (MCF-7 cells; MCF7, 48 h): > 50 µM | IC50 (GES-1 cells; GES1, 48 h): > 100 µM | IC50 (HeLa cells; 48 h): > 50 µM

C[C@H](CC[C@H]1OC2C[C@H]3[C@@H]4CC=C5C[C@@H](OC(=O)c6ccc(N(CCCl)CCCl)cc6)CC[C@]5(C)C4CC[C@]3(C)C2[C@@H]1C)COC(=O)c1ccc(N(CCCl)CCCl)cc1 (stereo partly drawn) [Compound 9, (22 R,25R)-3β-((4-(bis(2-chloroethyl)amino)benzoyl)oxy)-5-en-furostan-26–4-(bis(2-chloroethyl)amino) benzoate]
IC50 (HepG2 cells; Homo sapiens, HepG2, 48 h): > 50 µM | IC50 (MCF-7 cells; MCF7, 48 h): > 50 µM | IC50 (GES-1 cells; GES1, 48 h): > 100 µM | IC50 (HeLa cells; 48 h): > 50 µM

CC(=O)O[C@H]1CC[C@@]2(C)C(=CC[C@@H]3C2CC[C@]2(C)C4C(C[C@@H]32)O[C@H](CC[C@@H](C)COC(=O)c2ccc(N(CCCl)CCCl)cc2)[C@H]4C)C1 (stereo partly drawn) [Compound 10, (22 R,25R)-3β-acetoxy-5-en-furostan-26–4-(bis(2-chloroethyl)amino)benzoate]
IC50 (HepG2 cells; Homo sapiens, HepG2, 48 h): > 50 µM | IC50 (MCF-7 cells; MCF7, 48 h): 28.1 ± 1.52 µM | IC50 (GES-1 cells; GES1, 48 h): > 100 µM | IC50 (HeLa cells; 48 h): > 50 µM

CC(=O)OC1CCC2(C)C(=CCC3C2CCC2(C)C3CC3OC(CCC(C)C(=O)NCCNC(=O)c4ccc(N(CCCl)CCCl)cc4)C(C)C32)C1 [Compound 14a, (22 R,25R)-(2-aminoethyl-4-(bis(2-chloroethyl)amino)benzamido)-3β-acetoxy-5-en-furostan-26-amide]
IC50 (HepG2 cells; Homo sapiens, HepG2, 48 h): 10.2 ± 1.01 µM | IC50 (MCF-7 cells; MCF7, 48 h): 48.3 ± 2.21 µM | IC50 (GES-1 cells; GES1, 48 h): > 100 µM | IC50 (HeLa cells; 48 h): 17.2 ± 2.81 µM

CC(=O)OC1CCC2(C)C(=CCC3C2CCC2(C)C3CC3OC(CCC(C)C(=O)NCCCNC(=O)c4ccc(N(CCCl)CCCl)cc4)C(C)C32)C1 [Compound 14b, (22 R,25R)-(3-aminopropyl-4-(bis(2-chloroethyl)amino)benzamido)-3β-acetoxy-5-en-furostan-26-amide]
IC50 (HepG2 cells; Homo sapiens, HepG2, 48 h): 25.3 ± 1.4 µM | IC50 (MCF-7 cells; MCF7, 48 h): 30.3 ± 2.08 µM | SI (GES-1 cells): 1.86 | IC50 (GES-1 cells; GES1, 48 h): 47 ± 2.34 µM | IC50 (HeLa cells; 48 h): > 100 µM

CC(=O)OC1CCC2(C)C(=CCC3C2CCC2(C)C3CC3OC(CCC(C)C(=O)N4CCN(C(=O)c5ccc(N(CCCl)CCCl)cc5)CC4)C(C)C32)C1 [Compound 14e, (22 R,25R)-(1-piperazinyl-4-(bis(2-chloroethyl)amino)benzamido)-3β-acetoxy-5-en-furostan-26-amide]
IC50 (HepG2 cells; Homo sapiens, HepG2, 48 h): 19.3 ± 1.29 µM | IC50 (MCF-7 cells; MCF7, 48 h): 42.7 ± 2.25 µM | SI (GES-1 cells): 3.05 | IC50 (GES-1 cells; GES1, 48 h): 58.8 ± 1.34 µM | IC50 (HeLa cells; 48 h): > 50 µM

CC(CCC1OC2CC3C4CC=C5CC(O)CCC5(C)C4CCC3(C)C2C1C)C(=O)NCCNC(=O)c1ccc(N(CCCl)CCCl)cc1 [Compound 15a, (22 R,25R)-(2-aminoethyl-4-(bis(2-chloroethyl)amino)benzamido)-3β-hydroxy-5-en-furostan-26-amide]
IC50 (HepG2 cells; Homo sapiens, HepG2, 48 h): 13.2 ± 1.01 µM | IC50 (MCF-7 cells; MCF7, 48 h): > 100 µM | SI (GES-1 cells): 6.28 | IC50 (GES-1 cells; GES1, 48 h): 83.2 ± 3.12 µM | IC50 (HeLa cells; 48 h): > 50 µM

CC(CCC1OC2CC3C4CC=C5CC(O)CCC5(C)C4CCC3(C)C2C1C)C(=O)NCCCNC(=O)c1ccc(N(CCCl)CCCl)cc1 [Compound 15b, (22 R,25R)-(3-aminopropyl-4-(bis(2-chloroethyl)amino)benzamido)-3β-hydroxy-5-en-furostan-26-amide]
IC50 (HepG2 cells; Homo sapiens, HepG2, 48 h): 14 ± 1.15 µM | IC50 (MCF-7 cells; MCF7, 48 h): 37.2 ± 2.23 µM | SI (GES-1 cells): >7.14 | IC50 (GES-1 cells; GES1, 48 h): > 100 µM | IC50 (HeLa cells; 48 h): 49.8 ± 2.13 µM

CC(CCC1OC2CC3C4CC=C5CC(O)CCC5(C)C4CCC3(C)C2C1C)C(=O)N1CCN(C(=O)c2ccc(N(CCCl)CCCl)cc2)CC1 [Compound 15e, (22 R,25R)-(1-piperazinyl-4-(bis(2-chloroethyl)amino)benzamido)-3β-hydroxy-5-en-furostan-26-amide]
IC50 (HepG2 cells; Homo sapiens, HepG2, 48 h): 14 ± 1.12 µM | IC50 (MCF-7 cells; MCF7, 48 h): > 50 µM | IC50 (GES-1 cells; GES1, 48 h): > 100 µM | IC50 (HeLa cells; 48 h): 28.5 ± 2.13 µM

CC(CCC1OC2CC3C4CC=C5CC(O)CCC5(C)C4CCC3(C)C2C1C)C(=O)N1CCCN(C(=O)c2ccc(N(CCCl)CCCl)cc2)CC1 [Compound 15f, (22 R,25R)-(4–(1-homopiperazinyl)-4-(bis(2-chloroethyl)amino)benzamido)-3β-hydroxy-5-en-furostan-26-amide]
IC50 (HepG2 cells; Homo sapiens, HepG2, 48 h): 18.9 ± 0.93 µM | IC50 (MCF-7 cells; MCF7, 48 h): > 100 µM | SI (GES-1 cells): >5.28 | IC50 (GES-1 cells; GES1, 48 h): > 100 µM | IC50 (HeLa cells; 48 h): > 50 µM

C[C@@H]1CC[C@@]2(OC1)O[C@H]1C[C@H]3[C@@H]4CC=C5C[C@@H](O)CC[C@]5(C)[C@H]4CC[C@]3(C)[C@H]1[C@@H]2C [Diosgenin]
IC50 (HepG2 cells; Homo sapiens, HepG2, 48 h, MTT, 48 h treatment, average ± SD of three independent experiments): 32.6 µM | IC50 (HepG2 cells; [1]): 33.9 ± 1.37 µM | IC50 (MCF-7 cells; MCF7, MTT, 48 h treatment, average ± SD of three independent experiments): 23.9 ± 1.34 µM | IC50 (GES-1 cells; GES1, MTT, 48 h treatment, normal gastric epithelial cells, average ± SD of three independent experiments): > 100 µM | SI (GES-1 cells; SI = IC50 for GES-1 cell line/IC50 for HepG2 cell line): >2.95 | IC50 (HeLa cells; [1]): 55.1 ± 2.11 µM

CO[C@@]12[C@H](COC(N)=O)C3=C(C(=O)C(C)=C(N)C3=O)N1C[C@@H]1N[C@@H]12 [Mitomycin C, reference compound]
IC50 (HepG2 cells; Homo sapiens, HepG2, 48 h): 32.6 ± 1.22 µM | IC50 (MCF-7 cells; MCF7, 48 h): 16.7 ± 1.02 µM | SI (GES-1 cells): 0.72 | IC50 (GES-1 cells; GES1, 48 h): 23.4 ± 1.11 µM | IC50 (HeLa cells; 48 h): 22 ± 1.12 µM
